Where “and” joins values, the source holds several entries; their conditions need not be identical. Equal entries are not always repeated. Structures can show the parent of a compound that is named as a salt.
Key:
[1] = test system: lymphocytic leukemia P388; test: Lymphocytic Leukemia P388 Test; format: in vivo, DBA/2 mice
Protocol: Lymphocytic Leukemia P388 Test
The animals used were DBA/2 mice all of one sex, weighing a minimum of 17 g and all within a 3 g weight range. There were 5 or 6 animals per test group. The tumor transplant was by intraperitoneal injection of 0.1 ml of dilute ascitic fluid containing 10^6 cells of lymphocytic leukemia P388. The test compounds were administered intraperitoneally on days 1, 5 and 9 (relative to tumor inoculation) at various doses. The animals were weighed and survivors were recorded on a regular basis for 30 days. The median survival time and the ratio of survival time for treated (T)/control (C) animals were calculated. The positive control compound was 1,4-dihydroxy-5,8-bis--[ [2-(2-hydroxyethylamino)ethyl ]amino]anthraquinone, dihydrochloride (U.S. Patent 4,197,249) given at the indicated doses by injection.

[2] = test system: melanotic melanoma B16; test: Melanotic Melanoma B16 Test; format: in vivo, C57BC/6 mice
Protocol: The animals used were C57BC/6 mice, all of the same sex, weighing a minimum of 17 g and all within a 3 g weight range. There were normally 10 animals per test group. A 1.0 g portion of melanotic melanoma B16 tumor was homogenized in 10 ml of cold balanced salt solution and a 0.5 ml aliquot of the homogenate was implanted intraperitoneally into each of the test mice. The test compounds were administered intraperitoneally on days one through nine (relative to tumor inoculation) at various doses. The animals were weighed and survivors recorded on a regular basis for 60 days. The median survival time and the ratio of survival time for treated (T)/control (C) animals were calculated. The positive control compound was 1,4-dihydroxy-5,8-bis[[2-(2-hydroxyethylamino)-ethyl]amino]anthraquinone, dihydrochloride (U.S. Patent 4,197,249) given at the indicated doses by injection.

[3] = Dose 0.025 mg/kg intraperitoneally on days 1, 5 and 9
[4] = Dose 0.1 mg/kg intraperitoneally on days 1, 5 and 9
[5] = Dose 0.4 mg/kg intraperitoneally on days 1, 5 and 9
[6] = Dose 1.6 mg/kg intraperitoneally on days 1, 5 and 9
[7] = Dose 6.4 mg/kg intraperitoneally on days 1, 5 and 9
[8] = Dose 0.05 mg/kg intraperitoneally on days one through nine
[9] = Dose 0.2 mg/kg intraperitoneally on days one through nine
[10] = Dose 0.8 mg/kg intraperitoneally on days one through nine
[11] = Dose 3 mg/kg intraperitoneally on days one through nine
[12] = Dose 12 mg/kg intraperitoneally on days one through nine
[13] = Dose 0.8 mg/kg intraperitoneally on days 1, 5 and 9
[14] = Dose 3 mg/kg intraperitoneally on days 1, 5 and 9
[15] = Dose 12 mg/kg intraperitoneally on days 1, 5 and 9
[16] = Dose 50 mg/kg intraperitoneally on days 1, 5 and 9
[17] = Dose 200 mg/kg intraperitoneally on days 1, 5 and 9
[18] = Dose 50 mg/kg intraperitoneally on days one through nine
[19] = Dose 25 mg/kg intraperitoneally on days one through nine
[20] = Dose 100 mg/kg intraperitoneally on days one through nine
[21] = Dose 0.025 mg/kg intraperitoneally on days 1, 5 and 9, dihydrochloride, 0.025 mg/kg
[22] = Dose 0.1 mg/kg intraperitoneally on days 1, 5 and 9, dihydrochloride, 0.1 mg/kg
[23] = Dose 0.4 mg/kg intraperitoneally on days 1, 5 and 9, dihydrochloride, 0.4 mg/kg
[24] = Dose 1.6 mg/kg intraperitoneally on days 1, 5 and 9, dihydrochloride, 1.6 mg/kg
[25] = Dose 0.025 mg/kg by injection, dihydrochloride, 0.025 mg/kg
[26] = Dose 0.1 mg/kg by injection, dihydrochloride, 0.1 mg/kg
[27] = Dose 0.4 mg/kg by injection, dihydrochloride, 0.4 mg/kg
[28] = Dose 1.6 mg/kg by injection, dihydrochloride, 1.6 mg/kg

For `O=C1c2c(OC(=O)C(F)(F)F)ccc(OC(=O)C(F)(F)F)c2C(=O)c2c(N(CCN(CCOC(=O)C(F)(F)F)C(=O)C(F)(F)F)C(=O)C(F)(F)F)ccc(N(CCN(CCOC(=O)C(F)(F)F)C(=O)C(F)(F)F)C(=O)C(F)(F)F)c21` [N,N'-(5,8-Dihydroxy-l,4-anthraquinonylene)bis[2,2,2-trifluoro-N-[2,(2,2,2-trifluoro-N-2-hydroxyethyl-acetamido)ethyl]acetamide]tetrakis(trifluoroacetate) (tetraester)], the “Median Survival” value [1, 3] was 13.5 days, the “T/C x 100 (%)” value [1, 3] was 117% and the “Median Survival” value [1, 4] was 16 days. The “T/C x 100 (%)” value [1, 4] was 139%, the “Median Survival” value [1, 5] was 15 days and the “T/C x 100 (%)” value [1, 5] was 130%. The “Median Survival” value [1, 6] was 19.5 days, the “T/C x 100 (%)” value [1, 6] was 170% and the “Median Survival” value [1, 7] was 26.5 days. The “T/C x 100 (%)” value [1, 7] was 230%, the “Median Survival” value [2, 8] was 27 days and the “T/C x 100 (%)” value [2, 8] was 132%. The “Median Survival” value [2, 9] was 27 days, the “T/C x 100 (%)” value [2, 9] was 132% and the “Median Survival” value [2, 10] was 34 days. The “T/C x 100 (%)” value [2, 10] was 166%, the “Median Survival” value [2, 11] was >52 days and the “T/C x 100 (%)” value [2, 11] was >254%. The “Median Survival” value [2, 12] was 42 days and the “T/C x 100 (%)” value [2, 12] was 205%.

With `CC(=O)OCCN(CCNc1ccc(NCCN(CCOC(C)=O)C(C)=O)c2c1C(=O)c1c(O)ccc(O)c1C2=O)C(C)=O` [N,N'-[5,8-Dihydroxyl,4-anthraquinonylene-bis(imino-ethylene)]bis[N-2-hydroxyethylacetamide-2,2'diacetate]] the “Median Survival” value [1, 13] was 11 days, the “T/C x 100 (%)” value [1, 13] was 116% and the “Median Survival” value [1, 14] was 10 days. For the same compound, the “T/C x 100 (%)” value [1, 14] was 105%, the “Median Survival” value [1, 15] was 14 days and the “T/C x 100 (%)” value [1, 15] was 147%. The “Median Survival” value [1, 16] was 16 days, the “T/C x 100 (%)” value [1, 16] was 168% and the “Median Survival” value [1, 17] was 17 days. The “T/C x 100 (%)” value [1, 17] was 179%, the “Median Survival” value [2, 10] was 21.5 days and the “T/C x 100 (%)” value [2, 10] was 106%. For the same compound, the “Median Survival” value [2, 11] was 21.5 days, the “T/C x 100 (%)” value [2, 11] was 106% and the “Median Survival” value [2, 12] was 20.5 days. For the same compound, the “T/C x 100 (%)” value [2, 12] was 101%, the “Median Survival” value [2, 18] was 21.5 days and the “T/C x 100 (%)” value [2, 18] was 106%.

For `CC(=O)C(=O)NCCNc1ccc(NCCNC(=O)C(C)=O)c2c1C(=O)c1c(O)ccc(O)c1C2=O` [N,N'-[9,10-Dihydro-5,8-dihydroxy-9,10-dioxo-1,4-anthracenediyl)bis(imino-2,1-ethanediyl)]bis-[2-oxopropanamide]], the “Median Survival” value [1, 16] was 13.5 days, the “T/C x 100 (%)” value [1, 16] was 123% and the “Median Survival” value [1, 17] was 16.5 days. For the same compound, the “T/C x 100 (%)” value [1, 17] was 150%, the “Median Survival” value [2, 19] was 43.5 days and the “T/C x 100 (%)” value [2, 19] was 182%. The “Median Survival” value [2, 18] was 41 days, the “T/C x 100 (%)” value [2, 18] was 171% and the “Median Survival” value [2, 20] was 38 days. For the same compound, the “T/C x 100 (%)” value [2, 20] was 158%.

`O=C1c2c(O)ccc(O)c2C(=O)c2c(NCCNCCO)ccc(NCCNCCO)c21` [Positive Control, 1,4-dihydroxy-5,8-bis--[ [2-(2-hydroxyethylamino)ethyl]amino]anthraquinone, dihydrochloride, reference compound] was tested, and the “Median Survival” value [1, 21] was 17 days and 18 days and 16 days, the “T/C x 100 (%)” value [1, 21] was 170% and 171% and 145% and the “Median Survival” value [1, 22] was 25.5 days and 14.5 days and 16.5 days and 21.5 days. The “T/C x 100 (%)” value [1, 22] was 255% and 132% and 150% and 205% and 232%, the “Median Survival” value ([1]; Dose 0.2 mg/kg intraperitoneally on days 1, 5 and 9) was 14.5 days and the “T/C x 100 (%)” value ([1]; Dose 0.2 mg/kg intraperitoneally on days 1, 5 and 9, dihydrochloride, 0.2 mg/kg) was 153% and 126%. For the same compound, the “Median Survival” value [1, 23] was 19.5 days and 27 days and >30 days and 19 days and 26.5 days, the “T/C x 100 (%)” value [1, 23] was 205% and 169% and 270% and >273% and 173% and 252% and the “Median Survival” value [1, 13] was 18 days. For the same compound, the “T/C x 100 (%)” value ([1]; Dose 0.8 mg/kg intraperitoneally on days 1, 5 and 9, dihydrochloride, 0.8 mg/kg) was 189% and 156%, the “Median Survival” value [1, 24] was >30 days and 19.5 days and the “T/C x 100 (%)” value [1, 24] was >316% and >261% and >300% and >273% and >286% and 177%. For the same compound, the “Median Survival” value ([1]; Dose 3.2 mg/kg by injection) was >30 days, the “T/C x 100 (%)” value ([1]; Dose 3.2 mg/kg by injection, dihydrochloride, 3.2 mg/kg) was >261% and >316% and the “Median Survival” value [2, 25] was 28 days and 26 days and 33 days and 28.5 days. The “T/C x 100 (%)” value [2, 25] was 137% and 161% and 133%, the “Median Survival” value [2, 26] was 36 days and 31.5 days and 39 days and 32 days and 42 days and the “T/C x 100 (%)” value [2, 26] was 176% and 166% and 190% and 133% and 195%. For the same compound, the “Median Survival” value [2, 9] was 32 days, the “T/C x 100 (%)” value [2, 9] was 158% and the “Median Survival” value [2, 27] was 36 days and >60 days and 58 days. The “T/C x 100 (%)” value [2, 27] was 178% and >293% and >317% and >250% and 270%, the “Median Survival” value [2, 10] was 35 days and the “T/C x 100 (%)” value [2, 10] was 173%. The “Median Survival” value [2, 28] was >60 days and 38 days and 37 days and the “T/C x 100 (%)” value [2, 28] was >293% and >297% and 200% and >250% and 172%.

Source: patent EP0182135A2, “Novel bis-(substituted amino) anthraquinones” (AMERICAN CYANAMID COMPANY, priority 1984, dated 1986)
